Measured values published in US7772241B2, “Variolin derivatives and their use as antitumor agents” (Pharma Mar S.A., priority 2001, dated 2010).
Like-named read-outs stand apart in the source and are kept apart here.

Tests used:
HT-29 = test: Inhibition of cells growth by colorimetric (SRB) assay, HT-29; conditions: for CC50: read-out: LC50 HT-29, SRB assay, 48 hours exposure
In short: (§1)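 Human tumour cells seeded at 5×10^3/well in RPMI 1640 10% FBS, attached 18 h, then exposed 48 h to samples at 10 to 10^−8 μg/ml in DMSO/EtOH/PBS (0.5:0.5:99). Growth read by SRB staining after TCA fixation, OD 490 nm, triplicate wells; GI, TGI and LC derived.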

HMEC1 = test: Inhibition of cells growth by colorimetric (SRB) assay, HMEC1; conditions: for GI50: Homo sapiens, HMEC-1, 48 h, read-out: GI50 H-MEC-1, SRB assay, 48 hours exposure; for TGI H-MEC-1: SRB assay, 48 hours exposure, in M (unit assumed)
[1] = as above; conditions: human, HMEC1 cells, LC50 H-MEC-1, SRB assay, 48 hours exposure
A-549 = test: Inhibition of cells growth by colorimetric (SRB) assay, A-549
In short: as §1

PANC-1 = test: Inhibition of cells growth by colorimetric (SRB) assay, PANC-1; conditions: for GI50 / CC50: Homo sapiens, PANC-1, 48 h; for GI50: read-out: GI50 PANC-1, SRB assay, 48 hours exposure; for CC50: read-out: LC50 PANC-1, SRB assay, 48 hours exposure; for TGI PANC-1: SRB assay, 48 hours exposure
In short: as §1

LNCaP = test: Inhibition of cells growth by colorimetric (SRB) assay, LNCaP; conditions: for GI50 / CC50: Homo sapiens, LNCaP, 48 h; for GI50: read-out: GI50 LN-caP, SRB assay, 48 hours exposure; for CC50: read-out: LC50 LN-caP, SRB assay, 48 hours exposure; for TGI LN-caP: SRB assay, 48 hours exposure
In short: as §1

SK-MEL-28 = test: Inhibition of cells growth by colorimetric (SRB) assay, SK-MEL-28; conditions: for GI50: read-out: GI50 MEL-28, SRB assay, 48 hours exposure
In short: as §1

K-562 = test: Inhibition of cells growth by colorimetric (SRB) assay, K-562; conditions: for GI50 / CC50: Homo sapiens, K562, 48 h; for GI50: read-out: GI50 K-562, SRB assay, 48 hours exposure; for CC50: read-out: LC50 K-562, SRB assay, 48 hours exposure; for TGI K-562: SRB assay, 48 hours exposure
In short: as §1

DU-145 = test: Inhibition of cells growth by colorimetric (SRB) assay, DU-145; conditions: for GI50: read-out: GI50 DU-145, SRB assay, 48 hours exposure
In short: as §1

SK-BR-3 = test: Inhibition of cells growth by colorimetric (SRB) assay, SK-BR-3; conditions: for GI50 / CC50: Homo sapiens, SK-BR-3, 48 h; for GI50: read-out: GI50 SK-BR-3, SRB assay, 48 hours exposure; for CC50: read-out: LC50 SK-BR-3, SRB assay, 48 hours exposure; for TGI SK-BR-3: SRB assay, 48 hours exposure
In short: as §1

IGROV-1 = test: Inhibition of cells growth by colorimetric (SRB) assay, IGROV-1; conditions: for GI50 / CC50: Homo sapiens, IGROV-1, 48 h; for GI50: read-out: GI50 IGROV, SRB assay, 48 hours exposure; for CC50: read-out: LC50 IGROV, SRB assay, 48 hours exposure; for TGI IGROV: SRB assay, 48 hours exposure
In short: as §1

IGROV-ET = test: Inhibition of cells growth by colorimetric (SRB) assay, IGROV-ET; conditions: for GI50 / CC50: Homo sapiens, 48 h; for GI50: read-out: GI50 IGROV-ET, SRB assay, 48 hours exposure; for CC50: read-out: LC50 IGROV-ET, SRB assay, 48 hours exposure; for TGI IGROV-ET: SRB assay, 48 hours exposure
In short: as §1

LoVo = test: Inhibition of cells growth by colorimetric (SRB) assay, LoVo; conditions: for GI50: read-out: GI50 LOVO, SRB assay, 48 hours exposure
In short: as §1

LoVo-Dox = test: Inhibition of cells growth by colorimetric (SRB) assay, LoVo-Dox; conditions: for GI50 / CC50: Homo sapiens, 48 h; for GI50: read-out: GI50 LOVO-DOX, SRB assay, 48 hours exposure; for CC50: read-out: LC50 LOVO-DOX, SRB assay, 48 hours exposure; for TGI LOVO-DOX: SRB assay, 48 hours exposure
In short: as §1

[2] = Homo sapiens, HT-29, 48 h, read-out: GI50 HT-29, SRB assay, 48 hours exposure
[3] = Homo sapiens, A549, 48 h, read-out: GI50 A-549, SRB assay, 48 hours exposure
[4] = Homo sapiens, A549, 48 h, read-out: LC50 A-549, SRB assay, 48 hours exposure
[5] = Homo sapiens, SK-MEL-28, 48 h, read-out: LC50 MEL-28, SRB assay, 48 hours exposure
[6] = Homo sapiens, DU-145, 48 h, read-out: LC50 DU-145, SRB assay, 48 hours exposure

SMILES | CC50 (HT-29; Homo sapiens, HT-29, 48 h) [µM] | TGI HT-29 (HT-29; SRB assay, 48 hours exposure) | GI50 (HMEC1) [µM] | TGI H-MEC-1 (HMEC1) | CC50 at 48 h [1] [µM] | GI50 (A-549; [3]) [µM] | CC50 (A-549; [4]) [µM] | TGI A-549 (A-549; SRB assay, 48 hours exposure) | GI50 (PANC-1) [µM] | GI50 (LNCaP) [µM] | CC50 (LNCaP) [µM] | TGI LN-caP (LNCaP) | GI50 (SK-MEL-28; Homo sapiens, SK-MEL-28, 48 h) [µM] | TGI MEL-28 (SK-MEL-28; SRB assay, 48 hours exposure) | GI50 (K-562) [µM] | CC50 (K-562) [µM] | TGI K-562 (K-562) | GI50 (DU-145; Homo sapiens, DU-145, 48 h) [µM] | TGI DU-145 (DU-145; SRB assay, 48 hours exposure) | GI50 (IGROV-1) [µM] | other results
COc1nccc(-c2c3c(OCc4ccccc4)ccnc3n3c(N)nccc23)n1 [Compound 102] | 25.1 | 2.51E−05 | 6 | 1.09E−05 | 19.7 | 25.1 | 25.1 | 2.51E−05 |  |  |  |  |  |  |  |  |  |  |  |  | GI50 (HT-29; [2]): 25.1 µM
COc1nccc(-c2c3c(OC)ccnc3n3c(N)nccc23)n1 [Compound 109] |  |  | 2.04 | 2.17E−05 | 31 | 5.49 | 31 | 2.33E−05 | 9.4 | 1.4 | 31 | 4.81E−06 | 1.26 | 6.64E−06 | 7.6 | 31 | 2.41E−05 | 1.63 | 3.10E−05 | 3.07 | CC50 (SK-MEL-28; [5]): 22.4 µM; CC50 (DU-145; [6]): 31 µM; GI50 (SK-BR-3): 1.47 µM; CC50 (SK-BR-3): 31 µM; TGI SK-BR-3 (SK-BR-3): 5.40E−06; CC50 (IGROV-1): 31 µM; TGI IGROV (IGROV-1): 1.46E−05; GI50 (IGROV-ET): 7.17 µM; CC50 (IGROV-ET): 31 µM; TGI IGROV-ET (IGROV-ET): 2.21E−05
COc1ccnc2c1c(-c1ccnc(N)n1)c1ccnc(N)n12 [Compound 114] | 32.5 | 3.25E−06 | 0.67 | 1.33E−06 | 2.65 |  |  | 1.72E−06 | 1.35 | 0.625 | 2.35 | 1.21E−06 | 0.605 | 1.20E−06 | 1.7 | 16.2 | 2.98E−06 | 0.732 | 1.75E−06 | 0.843 | CC50 (PANC-1): 32.5 µM; TGI PANC-1 (PANC-1): 6.18E−06; GI50 (HT-29; read-out: GI50 HT-29, SRB assay, 48 hours exposure): 1.04 µM; CC50 (SK-MEL-28; read-out: LC50 MEL-28, SRB assay, 48 hours exposure): 2.4 µM; CC50 (DU-145; read-out: LC50 DU-145, SRB assay, 48 hours exposure): 6.22 µM; CC50 (IGROV-1): 15.8 µM; TGI IGROV (IGROV-1): 1.81E−06; GI50 (IGROV-ET): 1.51 µM; CC50 (IGROV-ET): 25.4 µM; TGI IGROV-ET (IGROV-ET): 3.29E−06; GI50 (LoVo; Homo sapiens, LoVo, 48 h): 0.54 µM; TGI LOVO (LoVo; SRB assay, 48 hours exposure): 1.98E−06; CC50 (LoVo; read-out: LC50 LOVO, SRB assay, 48 hours exposure): 10.3 µM; GI50 (LoVo-Dox): 0.827 µM; CC50 (LoVo-Dox): 32.5 µM; TGI LOVO-DOX (LoVo-Dox): 2.41E−06; GI50 (A-549; read-out: GI50 A-549, SRB assay, 48 hours exposure): 0.553 µM; CC50 (A-549; read-out: LC50 A-549, SRB assay, 48 hours exposure): 8.23 µM
Nc1nccc(-c2c3c(F)ccnc3n3c(N)nccc23)n1 [Compound 115] | ≥ 33.9 | 1.31E−05 | 0.599 | 1.56E−06 | 5.96 | 0.748 | ≥ 33.9 | 1.97E−06 | 2.05 | 0.721 | 2.34 | 1.30E−06 | 1.12 | 4.13E−06 | 4.47 | 28.9 | 1.13E−05 | 0.759 | 1.79E−06 | 1.23 | CC50 (PANC-1): ≥ 33.9 µM; TGI PANC-1 (PANC-1): 9.35E−06; GI50 (HT-29; [2]): 2.15 µM; CC50 (SK-MEL-28; [5]): 12.1 µM; CC50 (DU-145; [6]): 10.7 µM; GI50 (SK-BR-3): 0.752 µM; CC50 (SK-BR-3): 6.23 µM; TGI SK-BR-3 (SK-BR-3): 1.69E−06; CC50 (IGROV-1): ≥ 33.9 µM; TGI IGROV (IGROV-1): 5.22E−06; GI50 (IGROV-ET): 1.47 µM; CC50 (IGROV-ET): ≥ 33.9 µM; TGI IGROV-ET (IGROV-ET): 6.84E−06; GI50 (LoVo; Homo sapiens, LoVo, 48 h): 0.894 µM; CC50 (LoVo; Homo sapiens, LoVo, 48 h, read-out: LC50 LOVO, SRB assay, 48 hours exposure): ≥ 33.9 µM; TGI LOVO (LoVo; SRB assay, 48 hours exposure): 1.91E−06; GI50 (LoVo-Dox): 1.39 µM; CC50 (LoVo-Dox): ≥ 33.9 µM; TGI LOVO-DOX (LoVo-Dox): 5.76E−06
